The text below walks through data of ChEMBL document CHEMBL5465560, “Selectivity Literature for EUbOPEN Chemogenomic Library” (2024).

The target of experiment [1] is MAP/microtubule affinity-regulating kinase 3 (Homo sapiens) (UniProt P27448). Briefly: Selectivity interaction (Kinase panel (Z-LYTE Assay)) EUB0001632a MARK3. To be noted: at 10 µM.
Experiment [2] deals with Cyclin-dependent kinase 15 (Homo sapiens) (UniProt Q96Q40). Particulars: at 10 µM.
Experiment [3] deals with Tyrosine-protein kinase ABL2 (Homo sapiens, UniProt P42684). The experiment can be described thus: Selectivity interaction (KinomeScan (DiscoverX)) EUB0000666a ABL2. Particulars: at 10 µM.
Chain of Tyrosine-protein kinase ABL2 (P42684 whole entry): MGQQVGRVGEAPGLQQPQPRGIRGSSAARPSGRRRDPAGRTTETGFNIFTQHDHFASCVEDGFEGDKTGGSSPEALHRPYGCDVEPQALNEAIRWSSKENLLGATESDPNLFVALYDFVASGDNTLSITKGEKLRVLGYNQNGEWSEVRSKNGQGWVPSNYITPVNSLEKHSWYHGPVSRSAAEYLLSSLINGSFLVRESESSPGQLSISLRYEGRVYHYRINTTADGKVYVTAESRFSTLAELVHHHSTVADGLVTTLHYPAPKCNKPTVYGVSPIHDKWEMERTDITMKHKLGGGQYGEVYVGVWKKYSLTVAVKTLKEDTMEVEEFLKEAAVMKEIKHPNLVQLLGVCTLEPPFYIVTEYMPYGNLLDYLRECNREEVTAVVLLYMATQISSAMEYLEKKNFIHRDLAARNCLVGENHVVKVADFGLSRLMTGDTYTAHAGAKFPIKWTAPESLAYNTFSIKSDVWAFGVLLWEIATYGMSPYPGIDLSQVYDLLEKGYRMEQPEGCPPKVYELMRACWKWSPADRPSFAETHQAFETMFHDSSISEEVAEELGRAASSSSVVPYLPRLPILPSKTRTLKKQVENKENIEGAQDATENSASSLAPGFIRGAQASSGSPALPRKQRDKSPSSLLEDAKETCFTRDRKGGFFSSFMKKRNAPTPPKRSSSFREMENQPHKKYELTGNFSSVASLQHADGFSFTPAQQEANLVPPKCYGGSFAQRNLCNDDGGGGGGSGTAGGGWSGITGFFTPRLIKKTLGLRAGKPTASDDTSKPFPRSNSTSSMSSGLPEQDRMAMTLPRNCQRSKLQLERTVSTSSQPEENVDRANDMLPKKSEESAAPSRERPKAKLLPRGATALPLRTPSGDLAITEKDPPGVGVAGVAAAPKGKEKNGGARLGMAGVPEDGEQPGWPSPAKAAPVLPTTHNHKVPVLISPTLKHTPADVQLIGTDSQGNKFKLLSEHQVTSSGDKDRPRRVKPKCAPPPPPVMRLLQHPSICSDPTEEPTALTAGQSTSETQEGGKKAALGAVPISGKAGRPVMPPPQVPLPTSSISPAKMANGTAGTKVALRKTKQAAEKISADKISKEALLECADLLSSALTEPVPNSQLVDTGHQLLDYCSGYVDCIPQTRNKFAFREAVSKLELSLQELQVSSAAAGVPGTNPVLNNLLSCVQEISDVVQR
In experiment [4] the target is Citron Rho-interacting kinase (Homo sapiens) (UniProt O14578). The experiment can be described thus: Selectivity interaction (KinomeScan (DiscoverX)) EUB0000655a CIT. Particulars: at 10 µM.
The target of experiment [5] is T1, Cyclin-dependent kinase-like 5 (Homo sapiens) (UniProt O76039).
T1 sequence (whole entry): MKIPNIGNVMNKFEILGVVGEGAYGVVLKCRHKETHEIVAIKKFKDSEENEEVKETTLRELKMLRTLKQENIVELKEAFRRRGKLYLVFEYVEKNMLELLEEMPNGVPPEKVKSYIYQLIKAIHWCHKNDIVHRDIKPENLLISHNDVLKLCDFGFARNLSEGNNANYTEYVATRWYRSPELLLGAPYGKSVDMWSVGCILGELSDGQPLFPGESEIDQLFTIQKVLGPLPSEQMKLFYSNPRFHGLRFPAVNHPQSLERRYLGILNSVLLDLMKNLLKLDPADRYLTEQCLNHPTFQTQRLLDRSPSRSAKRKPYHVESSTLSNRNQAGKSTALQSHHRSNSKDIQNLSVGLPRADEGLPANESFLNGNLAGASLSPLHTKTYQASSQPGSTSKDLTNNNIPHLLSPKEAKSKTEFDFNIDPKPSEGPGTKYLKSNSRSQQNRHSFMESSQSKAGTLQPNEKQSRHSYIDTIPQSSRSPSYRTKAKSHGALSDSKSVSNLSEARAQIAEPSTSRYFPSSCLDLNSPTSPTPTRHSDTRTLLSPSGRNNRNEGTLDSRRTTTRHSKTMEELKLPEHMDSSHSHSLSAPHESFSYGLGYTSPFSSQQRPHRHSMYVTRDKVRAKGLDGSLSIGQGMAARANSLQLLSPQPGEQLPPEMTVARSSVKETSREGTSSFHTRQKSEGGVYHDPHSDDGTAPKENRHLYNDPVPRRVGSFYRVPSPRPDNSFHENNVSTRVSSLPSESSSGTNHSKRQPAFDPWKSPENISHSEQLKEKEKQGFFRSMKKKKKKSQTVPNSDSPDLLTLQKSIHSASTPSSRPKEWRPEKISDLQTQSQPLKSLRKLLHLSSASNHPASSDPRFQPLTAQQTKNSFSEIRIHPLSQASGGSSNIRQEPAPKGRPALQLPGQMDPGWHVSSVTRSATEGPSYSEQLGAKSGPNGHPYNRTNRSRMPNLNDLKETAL
Briefly: Selectivity interaction (KinomeScan (DiscoverX)) EUB0001619a CDKL5. To be noted: at 1 µM.

For experiment [6], the target named is Dual specificity mitogen-activated protein kinase kinase 1 (Homo sapiens, UniProt Q02750). Briefly: Selectivity interaction (Kinase panel (Eurofins)) EUB0001564a MAP2K1. Particulars: at 1 µM.
Experiment [7] has as its target Transient receptor potential cation channel subfamily M member 6 (Homo sapiens) (UniProt Q9BX84). Briefly: Selectivity interaction (KinomeScan (DiscoverX)) EUB0001049a TRPM6. Particulars: at 1 µM.
The target of experiment [8] is Rho-associated protein kinase 2 (Homo sapiens, UniProt O75116). The experiment can be described thus: Selectivity interaction (KinomeScan (DiscoverX)) EUB0000695a ROCK2. To be noted: at 100 nM.
Experiment [9] addresses T2, Dual specificity mitogen-activated protein kinase kinase 4 (Homo sapiens) (UniProt P45985).
T2 sequence (whole entry): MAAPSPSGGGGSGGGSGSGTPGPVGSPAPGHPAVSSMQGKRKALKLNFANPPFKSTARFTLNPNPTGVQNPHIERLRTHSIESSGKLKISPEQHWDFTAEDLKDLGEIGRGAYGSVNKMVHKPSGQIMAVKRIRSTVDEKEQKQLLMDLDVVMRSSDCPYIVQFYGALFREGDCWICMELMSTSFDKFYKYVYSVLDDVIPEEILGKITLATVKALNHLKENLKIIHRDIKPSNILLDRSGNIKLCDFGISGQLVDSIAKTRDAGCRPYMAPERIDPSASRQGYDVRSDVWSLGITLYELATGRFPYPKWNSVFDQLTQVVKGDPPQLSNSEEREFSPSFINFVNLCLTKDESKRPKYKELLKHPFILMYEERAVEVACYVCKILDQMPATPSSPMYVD
Briefly: Selectivity interaction (KinomeScan (DiscoverX)) EUB0000092b MAP2K4. To be noted: at 10 µM.

Experiment [10] has as its target Cyclin-dependent kinase 13 (Homo sapiens, UniProt Q14004). The experiment can be described thus: Selectivity interaction (KinomeScan (DiscoverX)) EUB0000045b CDK13.
In experiment [11] the target is Ribosomal protein S6 kinase alpha-3 (Homo sapiens, UniProt P51812). The experiment can be described thus: Selectivity interaction (Upstate Kinase Profiler service (Millipore)) EUB0000056c RPS6KA3. Particulars: at 1 µM.
Chain of Ribosomal protein S6 kinase alpha-3 (P51812 whole entry): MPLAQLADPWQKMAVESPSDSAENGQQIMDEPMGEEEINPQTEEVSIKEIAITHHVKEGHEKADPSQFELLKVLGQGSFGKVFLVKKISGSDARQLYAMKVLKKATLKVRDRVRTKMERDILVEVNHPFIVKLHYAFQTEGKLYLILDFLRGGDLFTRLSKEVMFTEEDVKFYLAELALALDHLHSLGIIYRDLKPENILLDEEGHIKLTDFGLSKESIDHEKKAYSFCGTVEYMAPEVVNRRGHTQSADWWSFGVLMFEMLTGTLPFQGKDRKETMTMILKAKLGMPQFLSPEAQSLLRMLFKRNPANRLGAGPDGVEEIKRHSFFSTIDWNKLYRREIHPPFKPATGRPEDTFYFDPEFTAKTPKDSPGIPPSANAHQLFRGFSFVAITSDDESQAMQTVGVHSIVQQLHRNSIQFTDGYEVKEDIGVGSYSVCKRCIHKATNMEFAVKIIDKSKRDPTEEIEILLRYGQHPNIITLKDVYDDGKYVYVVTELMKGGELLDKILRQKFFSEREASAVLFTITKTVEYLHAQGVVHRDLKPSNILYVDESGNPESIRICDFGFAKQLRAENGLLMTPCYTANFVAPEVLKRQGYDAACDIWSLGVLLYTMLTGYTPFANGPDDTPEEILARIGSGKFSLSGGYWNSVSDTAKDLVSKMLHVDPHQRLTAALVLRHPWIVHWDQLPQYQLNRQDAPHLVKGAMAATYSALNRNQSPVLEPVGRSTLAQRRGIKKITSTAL
Experiment [12] concerns the target Ribosomal protein S6 kinase alpha-1 (Homo sapiens, UniProt Q15418). Briefly: Selectivity interaction (KinomeScan (DiscoverX)) EUB0000595a RPS6KA1. Particulars: at 10 µM.

Chain of Cyclin-dependent kinase 13 (Q14004 whole entry, looked up): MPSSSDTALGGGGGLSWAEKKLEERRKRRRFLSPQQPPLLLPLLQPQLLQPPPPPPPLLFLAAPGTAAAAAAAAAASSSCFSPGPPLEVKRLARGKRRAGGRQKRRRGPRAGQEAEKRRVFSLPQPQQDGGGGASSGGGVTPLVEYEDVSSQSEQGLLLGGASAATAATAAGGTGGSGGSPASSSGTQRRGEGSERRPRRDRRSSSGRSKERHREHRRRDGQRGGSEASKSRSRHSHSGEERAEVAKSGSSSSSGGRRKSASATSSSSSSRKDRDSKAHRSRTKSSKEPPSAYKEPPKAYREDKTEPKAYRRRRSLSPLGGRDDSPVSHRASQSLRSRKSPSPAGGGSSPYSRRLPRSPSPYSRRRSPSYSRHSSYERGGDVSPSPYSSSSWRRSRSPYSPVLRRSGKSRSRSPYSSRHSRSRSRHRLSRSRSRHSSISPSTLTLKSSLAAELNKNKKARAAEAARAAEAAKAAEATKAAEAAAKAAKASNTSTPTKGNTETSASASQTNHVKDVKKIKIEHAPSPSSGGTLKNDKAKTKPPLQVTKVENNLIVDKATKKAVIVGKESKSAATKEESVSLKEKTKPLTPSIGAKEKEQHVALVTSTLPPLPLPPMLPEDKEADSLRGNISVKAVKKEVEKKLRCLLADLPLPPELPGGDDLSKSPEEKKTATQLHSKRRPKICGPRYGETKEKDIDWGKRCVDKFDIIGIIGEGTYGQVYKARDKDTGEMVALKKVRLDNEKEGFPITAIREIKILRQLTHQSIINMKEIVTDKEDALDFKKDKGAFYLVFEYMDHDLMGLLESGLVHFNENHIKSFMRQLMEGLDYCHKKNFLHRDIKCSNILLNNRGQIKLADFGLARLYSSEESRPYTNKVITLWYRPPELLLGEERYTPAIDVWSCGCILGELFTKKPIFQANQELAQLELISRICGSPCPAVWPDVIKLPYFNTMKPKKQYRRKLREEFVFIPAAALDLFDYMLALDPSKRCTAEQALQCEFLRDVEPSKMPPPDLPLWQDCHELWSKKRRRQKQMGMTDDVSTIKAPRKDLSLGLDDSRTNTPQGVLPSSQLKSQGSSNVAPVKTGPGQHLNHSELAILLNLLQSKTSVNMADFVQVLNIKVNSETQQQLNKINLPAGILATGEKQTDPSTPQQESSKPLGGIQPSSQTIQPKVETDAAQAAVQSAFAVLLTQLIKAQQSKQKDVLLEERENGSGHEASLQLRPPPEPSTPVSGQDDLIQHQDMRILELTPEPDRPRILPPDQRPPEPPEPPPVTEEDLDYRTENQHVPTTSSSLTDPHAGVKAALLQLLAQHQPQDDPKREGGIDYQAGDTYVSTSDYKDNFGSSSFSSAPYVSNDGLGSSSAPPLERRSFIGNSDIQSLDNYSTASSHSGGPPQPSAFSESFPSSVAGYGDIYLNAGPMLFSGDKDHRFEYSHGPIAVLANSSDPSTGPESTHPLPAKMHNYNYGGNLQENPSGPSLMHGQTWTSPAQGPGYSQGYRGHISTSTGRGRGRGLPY
Chain of Ribosomal protein S6 kinase alpha-1 (Q15418 whole entry): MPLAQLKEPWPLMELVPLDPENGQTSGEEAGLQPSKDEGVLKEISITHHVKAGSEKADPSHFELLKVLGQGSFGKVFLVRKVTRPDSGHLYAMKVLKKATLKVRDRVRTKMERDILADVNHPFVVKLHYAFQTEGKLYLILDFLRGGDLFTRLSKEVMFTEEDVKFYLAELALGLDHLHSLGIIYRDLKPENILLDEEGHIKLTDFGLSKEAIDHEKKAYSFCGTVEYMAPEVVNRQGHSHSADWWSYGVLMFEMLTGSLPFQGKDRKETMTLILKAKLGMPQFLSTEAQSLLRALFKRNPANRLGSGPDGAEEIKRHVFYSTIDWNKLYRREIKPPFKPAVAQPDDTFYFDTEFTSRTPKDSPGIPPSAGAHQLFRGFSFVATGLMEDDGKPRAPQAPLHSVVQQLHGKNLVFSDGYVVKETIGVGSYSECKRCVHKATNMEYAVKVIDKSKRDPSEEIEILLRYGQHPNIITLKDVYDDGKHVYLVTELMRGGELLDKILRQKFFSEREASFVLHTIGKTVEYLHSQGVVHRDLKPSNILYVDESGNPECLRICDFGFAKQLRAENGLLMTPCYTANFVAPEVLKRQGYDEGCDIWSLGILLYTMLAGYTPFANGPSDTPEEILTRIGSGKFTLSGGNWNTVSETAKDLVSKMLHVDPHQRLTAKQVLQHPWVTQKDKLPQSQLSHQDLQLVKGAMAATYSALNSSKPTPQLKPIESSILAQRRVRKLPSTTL
Chain of MAP/microtubule affinity-regulating kinase 3 (Homo sapiens) (P27448 whole entry, looked up): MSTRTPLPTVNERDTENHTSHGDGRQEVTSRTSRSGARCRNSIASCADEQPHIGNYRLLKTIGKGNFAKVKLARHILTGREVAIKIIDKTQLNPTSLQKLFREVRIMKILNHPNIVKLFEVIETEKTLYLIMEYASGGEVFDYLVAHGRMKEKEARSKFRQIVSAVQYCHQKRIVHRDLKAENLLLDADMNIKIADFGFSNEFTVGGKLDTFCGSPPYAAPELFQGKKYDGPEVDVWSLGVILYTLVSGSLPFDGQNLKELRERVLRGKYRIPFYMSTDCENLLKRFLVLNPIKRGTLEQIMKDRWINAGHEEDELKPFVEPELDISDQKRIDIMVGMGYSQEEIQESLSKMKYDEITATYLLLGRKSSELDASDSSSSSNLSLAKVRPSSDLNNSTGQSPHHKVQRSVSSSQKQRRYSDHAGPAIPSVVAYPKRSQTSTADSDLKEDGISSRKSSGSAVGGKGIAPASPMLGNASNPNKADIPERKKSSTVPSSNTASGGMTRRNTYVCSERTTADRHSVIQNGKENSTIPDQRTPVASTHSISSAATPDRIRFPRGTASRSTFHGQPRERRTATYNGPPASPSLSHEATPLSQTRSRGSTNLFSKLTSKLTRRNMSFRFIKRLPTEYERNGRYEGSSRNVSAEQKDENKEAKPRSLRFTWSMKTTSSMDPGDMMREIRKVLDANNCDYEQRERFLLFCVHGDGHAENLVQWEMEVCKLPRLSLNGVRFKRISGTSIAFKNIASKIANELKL

Take `Cn1cc(-n2cnc3c(NCc4nc5cc(Cl)c(Cl)cc5[nH]4)nc(N4CCOCC4)nc32)cn1`: the % of control in [1] was determined as 18.1%. In turn, `Cc1cc([C@@H](C)Nc2ccccc2C(=O)O)c2nc(N3CCOCC3)cc(=O)n2c1` [AZD-6482] registered a % of control in [2] of 100%.

Regarding `O=C(NOC[C@H](O)CO)c1ccc(F)c(F)c1Nc1ccc(I)cc1F`, the % of control in [3] was 90%.

Turning to `CN(C)CCOc1ccc(-c2nc(-c3ccncc3)c(-c3ccc4c(c3)CC/C4=N\O)[nH]2)cc1`, in experiment [4], the % of control is 0.8%. In experiment [5], `N#Cc1cccc(-c2c[nH]c3ncnc(N4CCOCC4)c23)c1` gave a % of control of 100%. In experiment [6], `CC[C@@H](Nc1c(C#N)c(-c2ccc(-c3cccc(C)c3F)cc2)nc2cnccc12)C(=O)O` [BAY-091] yielded a % of inhibition of 21.5%. As to `COc1cc(Nc2nc(C)cc(-c3cnn4nc(OC)ccc34)n2)cc(C(F)(F)F)c1`, the % of control in experiment [7] came out at 96%.

`Cc1cc(F)c(C(=O)Nc2cccc(-c3nncn3C(C)C)n2)cc1-n1cnc(C2CC2)c1` gave a % of control in experiment [8] of 81%. Turning to `CCC(=O)N1CCN(c2ccc(-n3c(=O)ccc4cnc5ccc(-c6cnc7ccccc7c6)cc5c43)cc2C(F)(F)F)CC1`, in experiment [9], the % of control was determined as 30%. As for `C=CC(=O)Nc1cc(-n2c(=O)ccc3cnc4ccc(-c5ccc(NS(C)(=O)=O)cc5)cc4c32)ccc1C`, the % of control in [10] (at 1 µM) and in experiment [10] (at 10 µM) was 100% each time. `Cc1ccc(-c2ccc3c(ccc4sc5c(c43)NC[C@@H](C)NC5=O)n2)cn1` showed a % of inhibition in experiment [11] of 27%. On to `COCC(=O)NC/C=C/c1ccc2ncnc(Nc3ccc(Oc4ccc(C)nc4)c(C)c3)c2c1` [CP-724714], for which the % of control in experiment [12] was determined as 100%.
